# According to patent USRE38551E1, “Anticonvulsant enantiomeric amino acid derivatives” (priority 1996, dated 2004):
# Marks after values point to notes of the source that are not given here.
# Columns and labels:
# [1] = system: maximal electroshock (MES) induced seizure; assay: maximal electroshock (MES) seizure test, mice (ip); assay type: in vivo; conditions: for ED50: Mus musculus
# Text: (§1) Compounds were screened for anticonvulsant activity in both male albino Carthworth Farms No. 1 mice (ip route) and male albino Sprague Dawley rats [oral (po) route]. Activity was established using the electrical (maximal electroshock or MES) test. In the MES test, a drop of electrolyte solution with anesthetic (0.5% butacaine hemisulfate in 0.9% sodium chloride) was used in the eyes of the animals prior to positioning the corneal electrodes and delivery of current. […] Protection endpoints were defined as the abolition of the hind limb tonic extensor component of the induced seizure. In mice, effects of compounds on forced spontaneous motor activity were determined using the rotorod test. […] Normally under these conditions, mice maintain their balance almost indefinitely. In rats, motor impairment is assessed by observing for overt evidence of ataxia, abnormal gait and stance, and/or loss of placing response and muscle tone. In the mouse identification screening study all compounds were given at three dose levels (30, 100, 300 mg/kg) and two time periods (0.5 hours, 4 hours). Typically, in the MES seizures test one animal was tested at 30 mg/kg and 300 mg/kg, and three animals at 100 mg/kg. In the rotored toxicity test four animals were tested at 30 mg/kg, and 300 mg/kg, and eight animals at 100 mg/kg.
# (§2) The quantitative determination of the median effective (ED50) and toxic doses (TD50) was conducted at previously calculated times of peak effect. Groups of at least eight animals were tested using different doses of test compound until at least two points wee determined between 100 and 0% protection and minimal motor impairment.
# [2] = system: maximal electroshock (MES) induced seizure; assay: maximal electroshock (MES) seizure test, rats (po); assay type: in vivo; conditions: for ED50: Rattus norvegicus
# Text: as §1, §2
# [3] = system: Crl:CoBs CD(SD) rats; assay: thirty-day dose range finding study of Compound A in rats; conditions: for BR - BRAIN W/STEM organ to terminal body weight ratio mean / HT - HEART organ to terminal body weight ratio mean / KD - KIDNEY organ to terminal body weight ratio mean / LI - LIVER organ to terminal body weight ratio mean / SP - SPLEEN organ to terminal body weight ratio mean / dilated pelves of kidneys, number of animals / TP - TESTIS/EPIDID organ to terminal body weight ratio mean: 30 days oral
# Protocol: More specifically, 50 male and 50 female Crl:CoBs® CD(SD) selected from 68 male and 68 female rats (4 weeks old) were used as test animals in the study 1. The rats were housed individually in elevated wire mesh cages with food (Purina Certified Rodent Chow® 5002) and tap water (via an automated watering system) available ad libitum. Each batch of feed utilized was analyzed by the manufacturer for concentrations of specified heavy metals, aflatoxin, chlorinated hydrocarbons, organophosphates, and specified nutrients.
# An artificial light cycle of 12 hours light and 12 hours dark was maintained.
# The rats were selected for use on the study using a computer-generated weight randomization procedure and assigned to the following groups:
# Following randomization, the rats were identified with an ear tag bearing a unique permanent identification number. The rats were randomly assigned to treatment groups by first eliminating the ones with extreme body weights (±2 standard deviations from the mean body weight).
# The desired amount of carboxymethyl cellulose was weighed on an appropriate (milligram) balance, transferred to a precalibrated beaker containing two-thirds of the total value of distilled water, and stirred on a magnetic stirrer until a solution formed. Distilled water was then added to final volume and stirred to achieve a 0.5% w/v solution.
# Compound A was first ground into a powder. The desired amount for each dose level as weighed on an appropriate (milligram) balance and transferred into a precalibrated beaker. A small amount (0.5 to 4ml) of 0.5% carboxymethyl cellulose was added to Compound A and mixed to form a paste. […] Fresh suspensions of Compound A were prepared daily and fresh solutions of 0.5% carboxymethyl cellulose were prepared weekly and stored refrigerated.
# Each rat received Compound A at a dosage factor of 10 milliliters per kilogram of body weight via gavage between 9 a.m. and noon each day. The dosing volume for each rat was calculated and adjusted weekly by the computer from the most recently recorded individual body weight.
# Compound A was administered orally.
# All rats were observed twice daily for mortality and moribundity. Clinical observations were made prior to dosing and at 1 and 4 hours after dosing. All signs were recorded as they were observed. Individual body weights were recorded at initiation of treatment, at weekly intervals, and at termination while food consumption was recorded weekly.
# Following 30 or 31 days of treatment, surviving rats were weighed, anesthetized, and exsanguinated under sodium pentobarbital anesthesia. Complete necropsies were performed on each rat by appropriately trained personnel using procedures approved by board-certified pathologists. Necropsy included examination of the following:
# Various organs were weighted and compared to the control, e.g., brain with stem, heart, spleen, kidney, liver, sex organs.
# [4] = system: liver; conditions: rats, p.o., short term
# [5] = female, group 5, 1000 mg/kg/day
smiles,measurement,setting,value
"CC(=O)NC(C)C(=O)NCc1ccccc1 (racemic) [compound 1, N-Acetyl-D,L-alanine-N′-benzylamide]",ED50,"[1]; ip, read-out: MES, ED50",76.5 mg/kg
same,ED50,"[1]; ip, read-out: MOUSE anticonvulsant dose ED50 MES",76.5 mg/kg
same,PI protective index (TD50/MES ED50),"[1]; mice, ip",5.9
same,Ratio to MES,"[1]; mouse, i.p., Neurotox/MES (Table 6)",5.9
same,ED50,"[2]; po, read-out: MES, ED50",24.2 mg/kg
same,ED50,"[2]; po, read-out: RAT anticonvulsant ED50 MES",48.2 mg/kg
same,Ratio to MES,"[2]; rat, oral, Neurotox/MES (Table 6)",20.8
same,PI protective index (TD50/MES ED50),"[2]; rat, po",>20.8
same,mean kidney weight,[3]; Group 5 males (1000 mg/kg/day × 30 days),small increase
same,BR - BRAIN W/STEM organ to terminal body weight ratio mean,"[3]; female, group 2, 30 mg/kg/day",.887%
same,HT - HEART organ to terminal body weight ratio mean,"[3]; female, group 2, 30 mg/kg/day",.372%
same,KD - KIDNEY organ to terminal body weight ratio mean,"[3]; female, group 2, 30 mg/kg/day",.773%
same,LI - LIVER organ to terminal body weight ratio mean,"[3]; female, group 2, 30 mg/kg/day",3.122%
same,SP - SPLEEN organ to terminal body weight ratio mean,"[3]; female, group 2, 30 mg/kg/day",.204%
same,BR - BRAIN W/STEM organ to terminal body weight ratio mean,"[3]; female, group 3, 100 mg/kg/day",.899%
same,HT - HEART organ to terminal body weight ratio mean,"[3]; female, group 3, 100 mg/kg/day",.345%
same,KD - KIDNEY organ to terminal body weight ratio mean,"[3]; female, group 3, 100 mg/kg/day",.768%
same,LI - LIVER organ to terminal body weight ratio mean,"[3]; female, group 3, 100 mg/kg/day",3.166%
same,SP - SPLEEN organ to terminal body weight ratio mean,"[3]; female, group 3, 100 mg/kg/day",.200%
same,BR - BRAIN W/STEM organ to terminal body weight ratio mean,"[3]; female, group 4, 300 mg/kg/day",.934%
same,HT - HEART organ to terminal body weight ratio mean,"[3]; female, group 4, 300 mg/kg/day",.373%
same,KD - KIDNEY organ to terminal body weight ratio mean,"[3]; female, group 4, 300 mg/kg/day",.770%
same,LI - LIVER organ to terminal body weight ratio mean,"[3]; female, group 4, 300 mg/kg/day",3.172%
same,SP - SPLEEN organ to terminal body weight ratio mean,"[3]; female, group 4, 300 mg/kg/day",.198%
same,BR - BRAIN W/STEM organ to terminal body weight ratio mean,[3]; [5],.891%
same,HT - HEART organ to terminal body weight ratio mean,[3]; [5],.347%
same,KD - KIDNEY organ to terminal body weight ratio mean,[3]; [5],.763%
same,LI - LIVER organ to terminal body weight ratio mean,[3]; [5],3.739* %
same,SP - SPLEEN organ to terminal body weight ratio mean,[3]; [5],.189%
same,"dilated pelves of kidneys, number of animals","[3]; females, Group 5 (1000 mg/kg/day)",two
same,BR - BRAIN W/STEM organ to terminal body weight ratio mean,"[3]; male, group 2, 30 mg/kg/day",.593%
same,HT - HEART organ to terminal body weight ratio mean,"[3]; male, group 2, 30 mg/kg/day",.313%
same,KD - KIDNEY organ to terminal body weight ratio mean,"[3]; male, group 2, 30 mg/kg/day",.719%
same,LI - LIVER organ to terminal body weight ratio mean,"[3]; male, group 2, 30 mg/kg/day",2.849%
same,SP - SPLEEN organ to terminal body weight ratio mean,"[3]; male, group 2, 30 mg/kg/day",.172%
same,TP - TESTIS/EPIDID organ to terminal body weight ratio mean,"[3]; male, group 2, 30 mg/kg/day",1.265%
same,BR - BRAIN W/STEM organ to terminal body weight ratio mean,"[3]; male, group 3, 100 mg/kg/day",.599%
same,HT - HEART organ to terminal body weight ratio mean,"[3]; male, group 3, 100 mg/kg/day",.314%
same,KD - KIDNEY organ to terminal body weight ratio mean,"[3]; male, group 3, 100 mg/kg/day",.694%
same,LI - LIVER organ to terminal body weight ratio mean,"[3]; male, group 3, 100 mg/kg/day",3.059* %
same,SP - SPLEEN organ to terminal body weight ratio mean,"[3]; male, group 3, 100 mg/kg/day",.166%
same,TP - TESTIS/EPIDID organ to terminal body weight ratio mean,"[3]; male, group 3, 100 mg/kg/day",1.219%
same,"dilated pelves of kidneys, number of animals","[3]; male, group 3, 100 mg/kg/day",one
same,BR - BRAIN W/STEM organ to terminal body weight ratio mean,"[3]; male, group 4, 300 mg/kg/day",.581%
same,HT - HEART organ to terminal body weight ratio mean,"[3]; male, group 4, 300 mg/kg/day",.328%
same,KD - KIDNEY organ to terminal body weight ratio mean,"[3]; male, group 4, 300 mg/kg/day",.695%
same,LI - LIVER organ to terminal body weight ratio mean,"[3]; male, group 4, 300 mg/kg/day",3.101* %
same,SP - SPLEEN organ to terminal body weight ratio mean,"[3]; male, group 4, 300 mg/kg/day",.163%
same,TP - TESTIS/EPIDID organ to terminal body weight ratio mean,"[3]; male, group 4, 300 mg/kg/day",1.212%
same,"dilated pelves of kidneys, number of animals","[3]; male, group 4, 300 mg/kg/day",one
same,BR - BRAIN W/STEM organ to terminal body weight ratio mean,"[3]; male, group 5, 1000 mg/kg/day",.571%
same,HT - HEART organ to terminal body weight ratio mean,"[3]; male, group 5, 1000 mg/kg/day",.343%
same,KD - KIDNEY organ to terminal body weight ratio mean,"[3]; male, group 5, 1000 mg/kg/day",.770%
same,LI - LIVER organ to terminal body weight ratio mean,"[3]; male, group 5, 1000 mg/kg/day",3.683* %
same,SP - SPLEEN organ to terminal body weight ratio mean,"[3]; male, group 5, 1000 mg/kg/day",.176%
same,TP - TESTIS/EPIDID organ to terminal body weight ratio mean,"[3]; male, group 5, 1000 mg/kg/day",1.202%
same,mean liver weight,"[3]; males of Groups 4 (300 mg/kg/day × 30 days) and 5 (1000 mg/kg/day × 30 days), Group 5 females",increased
same,"dilated pelves of kidneys, number of animals","[3]; males, Group 5 (1000 mg/kg/day)",three
same,Safety Ratio daily dose; MES,"[3]; rat, oral, 100 mg/kg/day × 30 days vs oral MES ED50",2.1
same,"safety ratio, dose to signs of liver enlargement following 30 days medication relative to oral anti-convulsant dose","[3]; rats, threshold daily dose 100 mg/kg",2.1
"COC[C@@H](NC(C)=O)C(=O)NCc1ccccc1 [Ex. 1, 2, (R)-N-Benzyl-2-Acetamide-3-methoxypropionamide]","MES, ED50","[1]; mice, ip, at time of peak effect (hours in brackets)",4.5 [0.5] mg/kg
same,MOUSE anticonvulsant dose ED50 MES,"[1]; mouse, i.p. (Table 6)",4.46 mg/kg
same,RAT anticonvulsant ED50 MES,"[2]; rat, oral (Table 6)",3.90 mg/kg
same,"MES, ED50","[2]; rat, po, at time of peak effect",3.9 [0.5] mg/kg
same,liver necrosis,[4]; 3.9 or 100 mg/kg daily,no evidence of causing liver necrosis
same,liability for serious drug-drug interactions and liver toxicity (battery of liver enzyme studies),[4],relatively low
